pIC50: −log10 of the molar value.

The target in this assay is recombinant DYRK1A kinase (Homo sapiens (Human), UniProt Q13627). Briefly: DYRK1A kinase assay (Ser/Thr 18 peptide Z-lyte FRET). It counts as biochemical. Particulars: DYRK1A kinase activity, Z-lyte Ser/Thr 18 peptide, 15 μM ATP; method text calls the value IC50; read-out: EC50 (the source's name). Here is the method: Representative compounds were screened using the assay procedure for DYRK1A kinase activity as described below.
Each compound was dissolved in DMSO as a 10 mM stock and used to prepare compound source plates. Serial dilution (1:3, 11-point dose-response curves from 10 μM to 0.00016 μM) and compound transfer was performed using the ECHO 550 (Labcyte, Sunnyvale, CA) into 1536-well black-walled round bottom plates (Coming).
The DYRK1A kinase assay was run using the Ser/Thr 18 peptide Z-lyte assay kit according to manufacturer's instructions (Life Technologies-a Division of Thermo-Fisher). This is a non-radioactive assay using fluorescence resonance energy transfer (FRET) between coumarin and fluorescein to detect kinase activity which is represented as a ratio of coumarin emission/fluorescein emission.
Briefly, recombinant DYRK1A kinase, ATP and Ser/Thr peptide 18 were prepared in 1X Kinase buffer to final concentrations of 0.25 μg/mL, 15 μM, and 4 μM respectively. The mixture was allowed to incubate with the representative compounds for one hour at room temperature. All reactions were performed in duplicate. Unphosphorylated (“0% Control”) and phosphorylated (“100% control”) forms of Ser/Thr 18 served as control reactions. Additionally, an 11-point dose-response curve of Staurosporine (luM top) was run to serve as a positive compound control.
After incubation, Development Reagent A was diluted in Development Buffer then added to the reaction and allowed to further incubate for one hour at room temperature. The plate was read at Ex 400 Em 455 to detect the coumarin signal and Ex 400 Em 520 to measure the signal (EnVision Multilabel Plate Reader, PerkinElmer).
The Emission ratio (Em) was calculated as a ratio of the coumarin (C) emission signal (at 445 nm)/Fluorescein (F) emission signal (at 520 nm). The percent phosphorylation was then calculated using the following formula: [1−((Em ratio X F100%)-C100%)/((C0%-C100%) +(Em ratio X (F100%−F0%)))]. Dose-response curves were generated, and inhibitory concentration (IC50) values were calculated using non-linear regression curve fit in the Dotmatics' Studies Software (Bishops Stortford, UK).
For the compound `COc1nc(N[C@@H]2CCN(C3COC3)CC2(F)F)nn2ccc(-c3ccc4nnn(CC(F)(F)F)c4c3)c12` [Compound 922, (R)—N-(3,3-Difluoro-1-(oxetan-3-yl)piperidin-4-yl)-4-methoxy-5-(1-(2,2,2-trifluoroethyl)-1H-benzo[d][1,2,3]triazol-6-yl)pyrrolo[2,1-f][1,2,4]triazin-2-amine], the pIC50 is 9.05.

Take `COc1nc(N[C@H]2CC[C@@](C)(O)CC2)nn2ccc(-c3ccc4nccnc4c3)c12` [Compound 345, cis-4-((4-Methoxy-5-(quinoxalin-6-yl)pyrrolo[2,1-f][1,2,4]triazin-2-yl)amino)-1-methylcyclohexan-1-ol]: the pIC50 was 8.43.

Consider `COc1nc(N[C@H]2CC[C@@H](NC(C)=O)CC2)nn2ccc(-c3ccn4nccc4c3)c12` [Compound 17, N-(cis-4-((4-methoxy-5-(pyrazolo[1,5-a]pyridin-5-yl)pyrrolo[2,1-f][1,2,4]triazin-2-yl)amino)cyclohexyl)acetamide], for which the pIC50 is 7.76.

On to `COc1nc(N[C@H]2C[C@@](C)(NC(C)=O)C2)nn2ccc(-c3cc(F)c4nnn(CC(F)F)c4c3)c12` [Compound 805, N-((1s,3s)-3-((5-(1-(2,2-Difluoroethyl)-4-fluoro-1H-benzo[d][1,2,3]triazol-6-yl)-4-methoxypyrrolo[2,1-f][1,2,4]triazin-2-yl)amino)-1-methylcyclobutyl)acetamide], for which the pIC50 was 8.80.

As to `COc1nc(N[C@H]2CC[C@@H](OC(F)(F)F)CC2)nn2ccc(-c3cnc4nccn4c3)c12` [Compound 252, 5-(Imidazo[1,2-a]pyrimidin-6-yl)-4-methoxy-N-(cis-4-(trifluoromethoxy)cyclohexyl)pyrrolo[2,1-f][1,2,4]triazin-2-amine], the pIC50 is 8.60.

In the case of `COc1nc(N[C@@H]2CN(C3COC3)C[C@@H]2F)nn2ccc(-c3ccc4nnn(CC(F)F)c4c3)c12` [Compound 739, 5-(1-(2,2-Difluoroethyl)-1H-benzo[d][1,2,3]triazol-6-yl)-N-((3R,4S)-4-fluoro-1-(oxetan-3-yl)pyrrolidin-3-yl)-4-methoxypyrrolo[2,1-f][1,2,4]triazin-2-amine], the pIC50 is 8.34.

As for `COc1nc(NCC(C)(C)C#N)nn2ccc(-c3ccc4nnn(CC(F)F)c4c3)c12` [Compound 695, 3-((5-(1-(2,2-Difluoroethyl)-1H-benzo[d][1,2,3]triazol-6-yl)-4-methoxypyrrolo[2,1-f][1,2,4]triazin-2-yl)amino)-2,2-dimethylpropanenitrile], the pIC50 was 8.89.

Consider `COc1nc(N[C@H]2CC[C@](C)(O)CC2)nn2cc(F)c(-c3cnc4nccn4c3)c12` [Compound 996, (1r,4r)-4-((6-Fluoro-5-(imidazo[1,2-a]pyrimidin-6-yl)-4-methoxypyrrolo[2,1-f][1,2,4]triazin-2-yl)amino)-1-methylcyclohexan-1-ol], for which the pIC50 is 8.54.

For `COc1nc(N[C@H]2C[C@@](C)(O)C2)nn2ccc(-c3cc4cnccc4[nH]3)c12` [Compound 281, cis-3-((4-Methoxy-5-(1H-pyrrolo[3,2-c]pyridin-2-yl)pyrrolo[2,1-f][1,2,4]triazin-2-yl)amino)-1-methylcyclobutan-1-ol], the pIC50 is 8.18.

In the case of `COc1nc(N[C@H]2CC[C@@]3(CCO3)CC2)nn2ccc(-c3cnc4nccn4c3)c12` [Compound 275, 5-(Imidazo[1,2-a]pyrimidin-6-yl)-4-methoxy-N-((4r,7r)-1-oxaspiro[3.5]nonan-7-yl)pyrrolo[2,1-f][1,2,4]triazin-2-amine], the pIC50 is 8.47.

As to `COc1nc(N[C@H]2CCN(C3(C)COC3)C[C@H]2F)nn2ccc(-c3ccc4nnn(CC(F)F)c4c3)c12` [Compound 764, 5-(1-(2,2-difluoroethyl)-1H-benzo[d][1,2,3]triazol-6-yl)-N-((3R,4S)-3-fluoro-1-(3-methyloxetan-3-yl)piperidin-4-yl)-4-methoxypyrrolo[2,1-f][1,2,4]triazin-2-amine], the pIC50 is 9.40.

In the case of `CCn1nnc2ccc(-c3ccn4nc(N[C@H]5CCN(C6COC6)C[C@H]5F)nc(OC)c34)cc21` [Compound 646, 5-(1-Ethyl-1H-benzo[d][1,2,3]triazol-6-yl)-N-((3R,4S)-3-fluoro-1-(oxetan-3-yl)piperidin-4-yl)-4-methoxypyrrolo[2,1-f][1,2,4]triazin-2-amine], the pIC50 is 8.47.

With `c1cnc2cc(-c3ccn4nc(NC5CC6(CCOCC6)C5)nc(OC5COC5)c34)ccc2n1` [Compound 1137, 4-(Oxetan-3-yloxy)-5-(quinoxalin-6-yl)-N-(7-oxaspiro[3.5]nonan-2-yl)pyrrolo[2,1-f][1,2,4]triazin-2-amine], the pIC50 is 8.32.

As for `COc1nc(NC2CCN(C3COC3)CC2)nn2ccc(-c3ccc4nccn4c3)c12` [Compound 62, 5-(Imidazo[1,2-a]pyridin-6-yl)-4-methoxy-N-(1-(oxetan-3-yl)piperidin-4-yl)pyrrolo[2,1-f][1,2,4]triazin-2-amine], the pIC50 is 8.07.

`COc1nc(N[C@H]2CC[C@H](OC)CC2)nn2ccc(-c3ccn4nccc4c3)c12` [Compound 10, 4-Methoxy-N-(trans-4-methoxycyclohexyl)-5-(pyrazolo[1,5-a]pyridin-5-yl)pyrrolo[2,1-f][1,2,4]triazin-2-amine]: the pIC50 was 7.03.

Take `CNC(=O)[C@]1(C)C[C@H](Nc2nc(OC)c3c(-c4ccc5nnn(C)c5c4)ccn3n2)C1` [Compound 209, cis-3-((4-Methoxy-5-(1-methyl-1H-benzo[d][1,2,3]triazol-6-yl)pyrrolo[2,1-f][1,2,4]triazin-2-yl)amino)-N,1-dimethylcyclobutane-1-carboxamide]: the pIC50 is 8.06.

Regarding `COc1nc(N[C@H]2C[C@](C)(NC(C)=O)C2)nn2ccc(-c3ccc4nnn(C)c4c3)c12` [Compound 206, N-(trans-3-((4-Methoxy-5-(1-methyl-1H-benzo[d][1,2,3]triazol-6-yl)pyrrolo[2,1-f][1,2,4]triazin-2-yl)amino)-1-methylcyclobutyl)acetamide], the pIC50 is 9.40.

`COc1nc(N[C@@H]2CCN(C3COC3)CC2(F)F)nn2ccc(-c3ccc4nnn(C)c4c3)c12` [Compound 628, (R)—N-(3,3-Difluoro-1-(oxetan-3-yl)piperidin-4-yl)-4-methoxy-5-(1-methyl-1H-benzo[d][1,2,3]triazol-6-yl)pyrrolo[2,1-f][1,2,4]triazin-2-amine]: the pIC50 is 8.20.

With `COc1nc(N[C@H]2C[C@](C)(C(=O)NC3CC(F)(F)C3)C2)nn2ccc(-c3ccc4ncccc4c3)c12` [Compound 1041, trans-N-(3,3-Difluorocyclobutyl)-3-((4-methoxy-5-(quinolin-6-yl)pyrrolo[2,1-f][1,2,4]triazin-2-yl)amino)-1-methylcyclobutane-1-carboxamide], the pIC50 was 9.05.

On to `COc1nc(N[C@H]2CC[C@](C)(O)CC2)nn2ccc(-c3cc4ccncc4[nH]3)c12` [Compound 284, trans-4-((4-Methoxy-5-(1H-pyrrolo[2,3-c]pyridin-2-yl)pyrrolo[2,1-f][1,2,4]triazin-2-yl)amino)-1-methylcyclohexan-1-ol], for which the pIC50 is 6.63.

On to `COc1nc(N[C@H]2C[C@](C)(O)C2)nn2ccc(-c3ccc4nnn(CC(F)F)c4c3)c12` [Compound 711, (1r,3r)-3-((5-(1-(2,2-Difluoroethyl)-1H-benzo[d][1,2,3]triazol-6-yl)-4-methoxypyrrolo[2,1-f][1,2,4]triazin-2-yl)amino)-1-methylcyclobutan-1-ol], for which the pIC50 is 9.30.

For `COc1nc(NC2CCC3(CC2)CNC3)nn2ccc(-c3ccc4ncnn4c3)c12` [Compound 195, 5-([1,2,4]Triazolo[1,5-a]pyridin-6-yl)-4-methoxy-N-(2-azaspiro[3.5]nonan-7-yl)pyrrolo[2,1-f][1,2,4]triazin-2-amine], the pIC50 is 8.41.

On to `COc1nc(N[C@H]2C[C@@](C)(NC(C)=O)C2)nn2ccc(-c3ccc4nnn(CC(F)(F)F)c4c3)c12` [Compound 905, N-((1s,3s)-3-((4-Methoxy-5-(1-(2,2,2-trifluoroethyl)-1H-benzo[d][1,2,3]triazol-6-yl)pyrrolo[2,1-f][1,2,4]triazin-2-yl)amino)-1-methylcyclobutyl)acetamide], for which the pIC50 was 9.40.

For `COc1nc(N[C@@H]2CCNCC2(F)F)nn2ccc(-c3ccc4ncnn4c3)c12` [Compound 575, (R)-5-([1,2,4]Triazolo[1,5-a]pyridin-6-yl)-N-(3,3-difluoropiperidin-4-yl)-4-methoxypyrrolo[2,1-f][1,2,4]triazin-2-amine], the pIC50 was 8.16.

Consider `CC[C@]1(O)CC[C@H](Nc2nc(OC)c3c(-c4cc(F)c5nccn5c4)ccn3n2)CC1` [Compound 433, (1r,4r)-1-Ethyl-4-((5-(8-fluoroimidazo[1,2-a]pyridin-6-yl)-4-methoxypyrrolo[2,1-f][1,2,4]triazin-2-yl)amino)cyclohexan-1-ol], for which the pIC50 is 8.59.

Source of the values: patent publication US20240002391A1, “4-ALKOXYPYRROLO[2,1-F][1,2,4]TRIAZINES AND PREPARATION AND USES THEREOF” (BioSplice Therapeutics, Inc., priority 2022, published 2024).
